Measurements reported in patent publication US20080318954A1, “Compounds” (Cyclacel Limited, priority 2004, published 2008).
Entries after “also recorded” stand apart in the source; their conditions may differ.

How the values were obtained:
[1] = test system: β-catenin in HEK293 cells; test: β-catenin accumulation and phosphorylation in HEK293 cells; type: cell-based, human; conditions: up to 5 μM
Text: One of the possible toxicities related to GSK3 inhibition is the accumulation of β-catenin, which has been implicated in the development of colon cancer and melanoma. The effect of example compound XIV on the endogenous levels of β-catenin in HEK293 cells was studied at concentrations that are effective in activation of cellular glycogen synthase.

[2] = test system: glycogen synthase activity in HEK293 cells; test: Glycogen synthase (GS) assay in HEK293 cells; type: cell-based, human
Method: Cells on 10 cm dishes (Human Embryonic Kidney (HEK) 293 cells, L6 rat myocytes, or 3T3 mouse adipocytes) were treated with different concentrations of GSK3-inhibitors or DMSO vehicle for 90 min. Incubation medium was removed and cells were washed with ice-cold phosphate-buffered saline (PBS) prior to lysis on ice in 50 mM HEPES, pH 7.5, 10 mM EDTA, 100 mM NaF, 5 mM DTT, protease inhibitor cocktail (Sigma). After a freeze/thaw cycle the samples are sonicated for 10 sec and centrifuged at 15,000 g for 10 min at 4° C. Lysate supernatants were snap-frozen on liquid nitrogen and stored at −80° C. Lysates were assayed for glycogen synthase activity in buffer (50 mM Tris-HCl, pH 7.8, 20 mM EDTA, 25 mM NaF, 5 mM DTT, 1% glycogen, 0.3 mM UDP-glucose and 0.06 μCi of [^14C]-UDP-glucose in the presence of 0.1 or 10 mM glucose-6-phosphate. The reaction was carried out for 30 min at 30° C. 70 μL of the reaction mixture (total volume 90 μL) were transferred to a GFC 96-well filter plate (bottom sealed with foil), containing 140 μL 96% ethanol. The GFC plate was incubated for 1 h on ice and than washed with 66% ethanol. To each well 100 μL scintillant liquid was added and the radioactivity of the samples was measured using a scintillation counter (Topcount, HP). Data are expressed as -fold increase in glycogen synthase activity ratios over those of control samples.

p70S6K = test: Protein kinase panel selectivity screen, p70S6K; type: biochemical; conditions: 1 μM compound; [ATP] 20 μM
Method: (§1) The names of the 29 kinases comprising the selectivity screen, as well as the ATP concentrations used in each kinase case, are given in Table 5. The kinase assays were carried out as described previously.
(§2) Compound XIV at a concentration of 1 μM was screened in the 29-kinase panel (Dundee University) and the results are shown bellow in Table 6.

CSK = target: T1, CSK (Homo sapiens, UniProt P41240); test: Protein kinase panel selectivity screen, CSK; type: biochemical; conditions: 1 μM compound; [ATP] 20 μM
T1 construct: Dundee University (screening panel)
Method: as §1, §2

AMPK = test: Protein kinase panel selectivity screen, AMPK; type: biochemical; conditions: 1 μM compound; [ATP] 50 μM
Method: as §1, §2

CDK4/cyclin D1 = target: T2, CDK4/cyclin D1 (Homo sapiens, UniProt P11802); test: CDK/cyclin kinase assay, CDK4/cyclin D1; type: biochemical
T2 construct: His6 (N); made in house; host or cells: CDK4: Sf9 insect cells (baculovirus); Cyclin D1: E. coli, Sf9
Method: (§3) CDK4/cyclin D1, CDK1/cyclin B, CDK2/cyclin E, CDK2/cyclin A, CDK9/cyclin T1 and CDK7/cyclin H, all with a His6 tag on the N-terminus, were expressed in Sf9 insect cells using an appropriate baculovirus construct. Sf9 culture (1.6×10^6 cells/mL) was infected (MOI of 3) for two days. The cells were harvested by low speed centrifugation and the protein was purified from the insect cell pellet by metal affinity chromatography. In short: the insect cell pellet was lysed in Buffer A (10 mM Tris-HCl pH 8.0, 150 mM NaCl, 0.02% NP-40, 5 mM β-mercaptoethanol, 20 mM NaF, 1 mM Na3VO4, and Sigma Protease Inhibitor Cocktail) by sonication. The soluble fraction was cleared by centrifugation and loaded onto Ni-NTA-Agarose (Qiagen). Non-bound protein was washed off with 300 mM NaCl, 5-15 mM imidazole in buffer A and the bound protein was eluted with buffer A supplemented with 250 mM imidazole. The purified proteins were extensively dialyzed against storage buffer (20 mM HEPES pH 7.4, 50 mM NaCl, 2 mM DTT, 1 mM EDTA, 1 mM EGTA, 0.02% NP-40, 10% v/v glycerol) and stored at −70° C.
(§4) Compounds were investigated for their CDK2/cyclin E, CDK2/cyclin A, CDK1/cyclin B, and CDK4/cyclin D1 inhibitory activity. His6-tagged recombinant human cyclin-dependent kinases CDK1/cyclin B1, CDK2/cyclin E, CDK2/cyclin A, and CDK4 were expressed in sf9 insect cells using a baculovirus expression system. Recombinant cyclin D1 was expressed in E. coli. Proteins were purified by metal chelate affinity chromatography to greater than 90% homogeneity. Kinase assays were performed in 96-well plates using recombinant CDK/cyclins. Assays were performed in assay buffer (25 mM β-glycerophosphate, 20 mM MOPS, 5 mM EGTA, 1 mM DTT, 1 mM […], pH 7.4), into which were added 2-4 μg of active enzyme with appropriate substrates (purified histone H1 for CDK1 and CDK2, recombinant GST-retinoblastoma protein (residues 773-928) for CDK4). The reaction was initiated by addition of Mg/ATP mix (15 mM MgCl2+100 μM ATP with 30-50 kBq per well of [γ-^32P]-ATP) and mixtures incubated for 10-45 min, as required, at 30° C. Reactions were stopped on ice, followed by filtration through p81 or GF/C filterplates (for CDK4) (Whatman Polyfiltronics, Kent, UK). After washing 3 times with 75 mM aq orthophosphoric acid, plates were dried, scintillant added and incorporated radioactivity measured in a scintillation counter (TopCount, Packard Instruments, Pangbourne, Berks, UK). Compounds for kinase assays were made up as 10 mM stocks in DMSO and diluted into 10% DMSO in assay buffer. Data was analysed using curve-fitting software (GraphPad Prism version 3.00 for Windows, GraphPad Software, San Diego Calif. USA) to determine IC50 values (concentration of test compound which inhibits kinase activity by 50%).

CDK2/cyclin A = target: T3, CDK2/cyclin A (Homo sapiens, UniProt P24941); test: CDK/cyclin kinase assay, CDK2/cyclin A; type: biochemical
T3 construct: His6 (N); made in house; host or cells: Sf9 insect cells (baculovirus)
Method: as §3, §4

CDK9/cyclin T1 = target: T4, CDK9/cyclin T1 (Homo sapiens, UniProt P50750); test: CDK9/cyclin T1 inhibition constant; type: biochemical
T4 construct: His6 (N); made in house; host or cells: Sf9 insect cells (baculovirus)
Method: as §3
Intrinsic inhibition constants (Ki) for example compound XIV against a number of Ser/Thr kinases were determined and are summarized in Table 3.

T2 sequence (P11802 whole entry): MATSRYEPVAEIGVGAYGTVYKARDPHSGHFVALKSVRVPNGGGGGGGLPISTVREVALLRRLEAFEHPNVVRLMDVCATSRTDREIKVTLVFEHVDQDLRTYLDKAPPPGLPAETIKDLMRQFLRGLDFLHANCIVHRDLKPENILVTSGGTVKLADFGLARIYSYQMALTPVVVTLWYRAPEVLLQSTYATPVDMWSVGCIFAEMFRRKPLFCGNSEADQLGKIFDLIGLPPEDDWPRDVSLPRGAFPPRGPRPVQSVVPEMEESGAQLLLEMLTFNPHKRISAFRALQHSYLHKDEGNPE
T2 sequence (P24385 whole entry partner): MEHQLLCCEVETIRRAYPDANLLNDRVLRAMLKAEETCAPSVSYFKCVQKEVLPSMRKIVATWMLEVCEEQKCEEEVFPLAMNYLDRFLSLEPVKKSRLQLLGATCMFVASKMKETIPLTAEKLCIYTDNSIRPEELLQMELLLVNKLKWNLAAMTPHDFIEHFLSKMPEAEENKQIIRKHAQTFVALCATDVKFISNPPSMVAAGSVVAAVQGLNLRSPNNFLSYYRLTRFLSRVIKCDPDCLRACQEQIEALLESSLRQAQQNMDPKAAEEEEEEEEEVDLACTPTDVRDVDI
T4 sequence (P50750 whole entry, species assumed): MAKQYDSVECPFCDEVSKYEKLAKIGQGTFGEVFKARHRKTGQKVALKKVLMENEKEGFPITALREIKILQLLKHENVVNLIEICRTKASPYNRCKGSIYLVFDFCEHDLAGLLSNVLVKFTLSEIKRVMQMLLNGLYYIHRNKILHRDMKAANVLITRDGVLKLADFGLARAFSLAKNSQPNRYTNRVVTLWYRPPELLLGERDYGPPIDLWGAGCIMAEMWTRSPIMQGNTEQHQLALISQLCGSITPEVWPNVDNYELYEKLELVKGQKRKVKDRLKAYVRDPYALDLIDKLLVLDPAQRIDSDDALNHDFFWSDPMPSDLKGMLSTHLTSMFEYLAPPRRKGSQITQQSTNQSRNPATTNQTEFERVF
T4 sequence (O60563 whole entry partner, species assumed): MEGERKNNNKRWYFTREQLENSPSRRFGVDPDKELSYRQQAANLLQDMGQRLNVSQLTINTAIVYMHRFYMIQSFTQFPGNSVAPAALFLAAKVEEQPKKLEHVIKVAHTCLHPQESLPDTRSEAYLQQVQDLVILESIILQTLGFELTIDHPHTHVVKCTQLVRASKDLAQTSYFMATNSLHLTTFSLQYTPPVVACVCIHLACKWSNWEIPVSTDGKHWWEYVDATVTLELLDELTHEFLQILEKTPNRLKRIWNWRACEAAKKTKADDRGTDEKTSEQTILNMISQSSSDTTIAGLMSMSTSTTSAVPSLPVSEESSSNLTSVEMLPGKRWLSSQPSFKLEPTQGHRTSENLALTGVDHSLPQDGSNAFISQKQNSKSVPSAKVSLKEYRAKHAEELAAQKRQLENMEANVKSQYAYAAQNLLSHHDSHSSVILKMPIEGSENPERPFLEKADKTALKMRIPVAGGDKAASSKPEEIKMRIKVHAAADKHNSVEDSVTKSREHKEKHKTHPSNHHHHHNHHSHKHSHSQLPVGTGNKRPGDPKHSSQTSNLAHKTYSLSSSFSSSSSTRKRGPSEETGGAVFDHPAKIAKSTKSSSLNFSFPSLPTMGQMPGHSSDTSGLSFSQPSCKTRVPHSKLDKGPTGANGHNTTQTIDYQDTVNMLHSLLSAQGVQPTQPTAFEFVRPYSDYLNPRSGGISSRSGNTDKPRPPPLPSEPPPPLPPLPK
T1 sequence (P41240 whole entry, species assumed): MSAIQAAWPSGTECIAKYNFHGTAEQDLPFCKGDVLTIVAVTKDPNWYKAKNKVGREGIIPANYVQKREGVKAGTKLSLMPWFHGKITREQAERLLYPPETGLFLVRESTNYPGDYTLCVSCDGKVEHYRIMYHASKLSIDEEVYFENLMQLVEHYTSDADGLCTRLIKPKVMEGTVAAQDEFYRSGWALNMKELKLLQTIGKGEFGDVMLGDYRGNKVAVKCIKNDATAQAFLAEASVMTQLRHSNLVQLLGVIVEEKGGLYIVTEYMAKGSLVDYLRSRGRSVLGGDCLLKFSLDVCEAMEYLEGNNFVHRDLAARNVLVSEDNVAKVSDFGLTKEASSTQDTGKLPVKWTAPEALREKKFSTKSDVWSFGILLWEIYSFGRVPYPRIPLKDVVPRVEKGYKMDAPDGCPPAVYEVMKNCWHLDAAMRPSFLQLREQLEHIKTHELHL

Clc1ccc(Nc2nccc(-c3nccs3)n2)cn1 [Compound XIV, (6-Chloro-pyridin-3-yl)-(4-thiazol-2-yl-pyrimidin-2-yl)-amine]
Levels of cellular β-catenin [1]: lack of β-catenin accumulation; also recorded: did not change significantly | Phosphorylation of β-catenin at the GSK3-specific sites S33,37/T41 [1]: did not inhibit the phosphorylation | Activation of GS compared with 40 mM LiCl ([2]; HEK293 cells, 5 μM): comparable to that induced by 40 mM LiCl | Activity of glycogen synthase (fractional velocity) ([2]; HEK293 cells, ratio of activity at 0.1 and 10 mM glucose-6-phosphate): increased the activity of glycogen synthase | EC50 ([2]; Homo sapiens, HEK293, from dose-response curves, read-out: EC50 activation of glycogen synthase): 1500 ± 600 nM | fold induction at 0.1 µM ([2]; Homo sapiens, HEK293 cells, 0.1 μM): 0.9 | fold induction at 0.5 µM ([2]; Homo sapiens, HEK293 cells, 0.5 μM): 1.1 | fold induction at 1 µM ([2]; Homo sapiens, HEK293 cells, 1 μM): 1.6 | fold induction at 5 µM ([2]; Homo sapiens, HEK293 cells, 5 μM (Table 4)): 3.3 | fold induction at 5 µM ([2]; Homo sapiens, In HEK293 cells at [compound] = 5 μM (Table 2)): 3.7 | % Activity p70S6K (p70S6K): 91 ± 2% | activity at 1 µM (CSK): 93 ± 8% | % Activity AMPK (AMPK): 82 ± 5% | Ki (CDK4/cyclin D1): > 100 µM | Fold selectivity for GSK3 over CDK4/cyclin D1 (CDK4/cyclin D1; from Ki): >6,250 fold | IC50 (CDK4/cyclin D1; read-out: Kinase inhibition IC50 CDK4/D1): > 100 µM | Ki (CDK2/cyclin A): > 50 µM | Fold selectivity for GSK3 over CDK2/cyclin A (CDK2/cyclin A; from Ki): >3,125 fold | IC50 (CDK2/cyclin A; read-out: Kinase inhibition IC50 CDK2/A): > 50 µM | Ki (CDK9/cyclin T1): 500 nM | Fold selectivity for GSK3 over CDK9/cyclin T1 (CDK9/cyclin T1; from Ki): 31 fold
